The test system of test [1] is B.1.617.2 (delta variant). In kind it is cell-based, SARS-CoV-2. The conditions noted are these: healthy control subjects n=4, m.o.i. 0.1, 48 hrs; 10 mg/ml POPG, 4 mg/ml PI, prophylactic.
In test [2] the test system is B1.1.529 (omicron variant). In kind it is cell-based, SARS-CoV-2. The conditions noted are these: healthy control subjects n=4, m.o.i. 0.1, 48 Hr; 10 mg/ml POPG, 4 mg/ml PI, prophylactic.
The test system of test [3] is SARS-CoV-2 variant, B.1.351. In kind it is cell-based.

On to `CCCCCCCC/C=C\CCCCCCCC(=O)O[C@H](COC(=O)CCCCCCCCCCCCCCC)COP(=O)(O)OCC(O)CO` (stereo partly drawn) [POPG, palmitoyl-oleoyl-phosphatidylglycerol], for which the “B.1.617.2 (delta variant) replication” value in test [1] is “inhibited”. Also, the “B.1.1.529 (Omicron variant) replication” value in test [2] is “inhibited”. The “attenuation of B.1.351 replication” value in test [3] was 50%.
As to phosphatidylinositol [PI], the “B.1.617.2 (delta variant) replication” value in test [1] is reported as “inhibited”. In addition, the “B.1.1.529 (Omicron variant) replication” value in test [2] is given as “inhibited”. Further, the “attenuation of B.1.351 replication” value in test [3] came to 70%.

The values above are taken from patent US20260183321A1, “TREATMENT OF CORONAVIRUS INFECTIONS WITH ANTIMICROBIAL PHOSPHOLIPID COMPOSITIONS” (NATIONAL JEWISH HEALTH, priority 2022, published 2026).
